Reference: PubChem BioAssay (NCI)
“And” between values parts separate entries of the source, which are not always exact repeats. Equal values may be shown once.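 A five-concentration, 48-hour dose response in 96-well plates underlies each endpoint, interpolated linearly between surrounding concentrations. GI50 is the concentration that inhibits growth by half. Definition used: TGI = concentration required for complete inhibition of growth.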

How the values were obtained:
Assay in all cases: inhibition of tumour cell growth, NCI panel, 48 h
K-562 leukemia = tested on: K-562 leukemia
A549 NSCLC = tested on: A549 NSCLC
UO-31 renal = tested on: UO-31 renal
ACHN renal = tested on: ACHN renal
KM12 colon = tested on: KM12 colon
COLO 205 colon = tested on: COLO 205 colon
SK-MEL-28 melanoma = tested on: SK-MEL-28 melanoma
OVCAR-8 ovarian = tested on: OVCAR-8 ovarian
HL-60(TB) leukemia = tested on: HL-60(TB) leukemia
SNB-75 CNS = tested on: SNB-75 CNS
RXF 393 renal = tested on: RXF 393 renal
OVCAR-3 ovarian = tested on: OVCAR-3 ovarian
CCRF-CEM leukemia = tested on: CCRF-CEM leukemia
M14 melanoma = tested on: M14 melanoma
HOP-62 NSCLC = tested on: HOP-62 NSCLC
IGROV1 ovarian = tested on: IGROV1 ovarian
LOX IMVI melanoma = tested on: LOX IMVI melanoma
SF-295 CNS = tested on: SF-295 CNS
XF 498 CNS = tested on: XF 498 CNS
NCI-H226 lung = tested on: NCI-H226 lung
NCI-H522 lung = tested on: NCI-H522 lung
MALME-3M melanoma = tested on: MALME-3M melanoma
EKVX NSCLC = tested on: EKVX NSCLC
SK-MEL-2 melanoma = tested on: SK-MEL-2 melanoma
NCI-H23 lung = tested on: NCI-H23 lung
SNB-19 CNS = tested on: SNB-19 CNS
HCT-15 colon = tested on: HCT-15 colon
RPMI-8226 leukemia = tested on: RPMI-8226 leukemia
DMS 114 small cell lung = tested on: DMS 114 small cell lung
OVCAR-4 ovarian = tested on: OVCAR-4 ovarian
MOLT-4 leukemia = tested on: MOLT-4 leukemia
DMS 273 small cell lung = tested on: DMS 273 small cell lung
HCT-116 colon = tested on: HCT-116 colon
SW-620 colon = tested on: SW-620 colon
DLD-1 colon = tested on: DLD-1 colon
SN12C renal = tested on: SN12C renal
SF-539 CNS = tested on: SF-539 CNS
KM20L2 colon = tested on: KM20L2 colon
SK-OV-3 ovarian = tested on: SK-OV-3 ovarian
OVCAR-5 ovarian = tested on: OVCAR-5 ovarian
SF-268 CNS = tested on: SF-268 CNS
HCC-2998 colon = tested on: HCC-2998 colon
SR leukemia = tested on: SR leukemia
786-0 renal = tested on: 786-0 renal
UACC-257 melanoma = tested on: UACC-257 melanoma
NCI-H460 lung = tested on: NCI-H460 lung
HT29 colon = tested on: HT29 colon
TK-10 renal = tested on: TK-10 renal
CAKI-1 renal = tested on: CAKI-1 renal
LXFL 529 NSCLC = tested on: LXFL 529 NSCLC
U251 CNS = tested on: U251 CNS
SK-MEL-5 melanoma = tested on: SK-MEL-5 melanoma
SNB-78 CNS = tested on: SNB-78 CNS
M19-MEL melanoma = tested on: M19-MEL melanoma
A498 renal = tested on: A498 renal
HOP-18 NSCLC = tested on: HOP-18 NSCLC
UACC-62 melanoma = tested on: UACC-62 melanoma

## CSCCOC(=O)C(=[N+]=[N-])c1ccc([N+](=O)[O-])cc1
K-562 leukemia
  TGI: > 100 µM
A549 NSCLC
  TGI: > 100 µM
UO-31 renal
  TGI: > 100 µM
ACHN renal
  TGI: > 100 µM
KM12 colon
  TGI: > 100 µM
COLO 205 colon
  TGI: > 100 µM
SK-MEL-28 melanoma
  TGI: > 100 µM
OVCAR-8 ovarian
  TGI: > 100 µM
HL-60(TB) leukemia
  TGI: > 100 µM
SNB-75 CNS
  TGI: > 100 µM
RXF 393 renal
  TGI: > 100 µM
OVCAR-3 ovarian
  TGI: > 100 µM
CCRF-CEM leukemia
  TGI: > 100 µM
M14 melanoma
  TGI: > 100 µM
HOP-62 NSCLC
  TGI: > 100 µM
IGROV1 ovarian
  TGI: > 100 µM
LOX IMVI melanoma
  TGI: > 100 µM
SF-295 CNS
  TGI: > 100 µM
XF 498 CNS
  TGI: > 100 µM
NCI-H226 lung
  TGI: > 100 µM
NCI-H522 lung
  TGI: > 100 µM
MALME-3M melanoma
  TGI: > 100 µM
EKVX NSCLC
  TGI: > 100 µM
SK-MEL-2 melanoma
  TGI: > 100 µM
NCI-H23 lung
  TGI: > 100 µM
SNB-19 CNS
  TGI: > 100 µM
HCT-15 colon
  TGI: > 100 µM
RPMI-8226 leukemia
  TGI: > 100 µM
DMS 114 small cell lung
  TGI: > 100 µM
OVCAR-4 ovarian
  TGI: > 100 µM
MOLT-4 leukemia
  TGI: > 100 µM
DMS 273 small cell lung
  TGI: > 100 µM
HCT-116 colon
  TGI: > 100 µM
SW-620 colon
  TGI: > 100 µM
DLD-1 colon
  TGI: > 100 µM
SN12C renal
  TGI: > 100 µM
SF-539 CNS
  TGI: > 100 µM
KM20L2 colon
  TGI: > 100 µM
SK-OV-3 ovarian
  TGI: > 100 µM
OVCAR-5 ovarian
  TGI: > 100 µM
SF-268 CNS
  TGI: > 100 µM
HCC-2998 colon
  TGI: > 100 µM
SR leukemia
  TGI: > 100 µM
786-0 renal
  TGI: > 100 µM
UACC-257 melanoma
  TGI: > 100 µM
NCI-H460 lung
  TGI: > 100 µM
HT29 colon
  TGI: > 100 µM
TK-10 renal
  TGI: > 100 µM
CAKI-1 renal
  TGI: > 100 µM
LXFL 529 NSCLC
  TGI: > 100 µM
U251 CNS
  TGI: > 100 µM

## CC1=C[P+](Cc2ccccc2)(c2ccccc2)CC1 (stereo not given)
K-562 leukemia
  TGI: > 100 µM
A549 NSCLC
  TGI: > 100 µM
UO-31 renal
  TGI: > 100 µM
ACHN renal
  TGI: > 100 µM
SK-MEL-5 melanoma
  TGI: > 100 µM and 56.7 µM and 84.1 µM
KM12 colon
  TGI: > 100 µM
COLO 205 colon
  TGI: > 100 µM
SK-MEL-28 melanoma
  TGI: > 100 µM
OVCAR-8 ovarian
  TGI: > 100 µM
HL-60(TB) leukemia
  TGI: > 100 µM
SNB-75 CNS
  TGI: > 100 µM
RXF 393 renal
  TGI: > 100 µM
OVCAR-3 ovarian
  TGI: > 100 µM
CCRF-CEM leukemia
  TGI: > 100 µM
M14 melanoma
  TGI: > 100 µM
HOP-62 NSCLC
  TGI: > 100 µM
IGROV1 ovarian
  TGI: > 100 µM
LOX IMVI melanoma
  TGI: > 100 µM
SF-295 CNS
  TGI: > 100 µM
XF 498 CNS
  GI50: 25 µM
  TGI: 78.2 µM
NCI-H226 lung
  TGI: > 100 µM
NCI-H522 lung
  TGI: > 100 µM
SNB-78 CNS
  TGI: > 100 µM
MALME-3M melanoma
  GI50: 19.9 µM and 76.5 µM and 31.2 µM
  TGI: > 100 µM
EKVX NSCLC
  TGI: > 100 µM
SK-MEL-2 melanoma
  TGI: > 100 µM
NCI-H23 lung
  TGI: > 100 µM
SNB-19 CNS
  TGI: > 100 µM
HCT-15 colon
  TGI: > 100 µM
M19-MEL melanoma
  TGI: > 100 µM
RPMI-8226 leukemia
  TGI: > 100 µM
DMS 114 small cell lung
  TGI: > 100 µM
OVCAR-4 ovarian
  TGI: > 100 µM
MOLT-4 leukemia
  TGI: > 100 µM
DMS 273 small cell lung
  TGI: > 100 µM
HCT-116 colon
  TGI: > 100 µM
SW-620 colon
  TGI: > 100 µM
DLD-1 colon
  TGI: > 100 µM
SN12C renal
  TGI: > 100 µM
SF-539 CNS
  TGI: > 100 µM
A498 renal
  TGI: > 100 µM
KM20L2 colon
  TGI: > 100 µM
HOP-18 NSCLC
  TGI: > 100 µM
SK-OV-3 ovarian
  TGI: > 100 µM
OVCAR-5 ovarian
  TGI: > 100 µM
HCC-2998 colon
  GI50: 97.7 µM and > 100 µM and 39.3 µM
  TGI: > 100 µM
SR leukemia
  TGI: > 100 µM
786-0 renal
  TGI: > 100 µM
UACC-257 melanoma
  TGI: > 100 µM and 78 µM
NCI-H460 lung
  TGI: > 100 µM
HT29 colon
  TGI: > 100 µM
TK-10 renal
  TGI: > 100 µM
LXFL 529 NSCLC
  TGI: > 100 µM
U251 CNS
  GI50: 23.1 µM and 58.1 µM and 9.71 µM
  TGI: > 100 µM
UACC-62 melanoma
  TGI: > 100 µM
